Measured values from patent US9156872B2, “2′-azido substituted nucleoside derivatives and methods of use thereof for the treatment of viral diseases” (priority 2011, dated 2015).
Read-outs that look alike come from different tables or passages of the source.

System: HCV replicon cells
Assay: Cell-based HCV replicon assay (replicon RNA by Taqman real time PCR)
Settings: read-out: 1b EC50
[1] = Hepatitis C virus, 72 h, HCV replicon 1b, cells harvested on day 3
[2] = HCV replicon 1b, cells harvested on day 3

| SMILES | EC50 [nM] | EC50 (Hepatitis C virus, 72 h) [nM] | also measured |
| --- | --- | --- | --- |
| CCCCOC(=O)[C@H](C)NP(=O)(OC[C@H]1O[C@@H](n2ccc(=O)[nH]c2=O)[C@](C)(N=[N+]=[N-])[C@@H]1O)Oc1cccc2ccccc12 (single isomer, unassigned) [Compound 156] | 1500 | – | – |
| CC(C)OC(=O)[C@H](C)NP(=O)(OC[C@H]1O[C@@H](n2ccc(N)nc2=O)[C@](C)(N=[N+]=[N-])[C@@H]1O)Oc1ccccc1Cl (single isomer, unassigned) [Compound 204] | 1300 | – | – |
| CCOC(=O)c1ccccc1OP(=O)(N[C@@H](C)C(=O)OC)OC[C@H]1O[C@@H](n2ccc(=O)[nH]c2=O)[C@](C)(N=[N+]=[N-])[C@@H]1O (single isomer, unassigned) [Compound 225] | 2800 | – | – |
| CCCCOC(=O)[C@H](C)NP(=O)(OC[C@H]1O[C@@H](n2cnc3c(OC)nc(N)nc32)[C@](C)(N=[N+]=[N-])C1O)Oc1cccc2ccccc12 (single isomer, unassigned) [Compound 297] | – | 100 | – |
| C[C@H](NP(=O)(OC[C@H]1O[C@@H](n2ccc(=O)[nH]c2=O)[C@](C)(N=[N+]=[N-])[C@@H]1O)Oc1ccccc1)C(=O)OC1CCCCC1 (some centres unmarked) [Compound 144] | – | 700 | – |
| CCOc1nc(N)nc2c1ncn2[C@@H]1O[C@@H]2COP(=O)(NC3CCCCC3)O[C@H]2[C@@]1(C)N=[N+]=[N-] (some centres unmarked) [Compound 572] | – | – | EC50 [1]: 100000 nM |
| CCOc1nc(N)nc2c1ncn2[C@@H]1O[C@H](COP(=O)(N[C@@H](C)C(=O)OCC(C)C)Oc2ccccc2)[C@@H](O)[C@@]1(C)N=[N+]=[N-] (some centres unmarked) [Compound 61] | 800 | – | – |
| CCOc1nc(N)nc2c1ncn2[C@@H]1O[C@@H]2COP(=O)(OC3CCC3)O[C@H]2[C@@]1(C)N=[N+]=[N-] (single isomer, unassigned) [Compound 108] | – | – | EC50 [2]: 24100 nM |
| COC(=O)[C@H](C)NP(=O)(OC[C@H]1O[C@@H](n2ccc(N)nc2=O)[C@](C)(N=[N+]=[N-])[C@@H]1O)Oc1ccc(Cl)c(Cl)c1 (single isomer, unassigned) [Compound 193] | 61000 | – | – |
| CCOC(=O)[C@H](C)NP(=O)(OC[C@H]1O[C@@H](n2cnc3c(OC)nc(N)nc32)[C@](C)(N=[N+]=[N-])[C@@H]1O)Oc1ccc(F)cc1 (some centres unmarked) [Compound 247] | – | 700 | – |
| CCCOP1(=O)OC[C@H]2O[C@@H](n3ccc(=O)[nH]c3=O)[C@](C)(N=[N+]=[N-])[C@@H]2O1 (single isomer, unassigned) [Compound 566] | – | – | EC50 [2]: > 100000 nM |
| C[C@H](NP(=O)(OC[C@H]1O[C@@H](n2ccc(=O)[nH]c2=O)[C@](C)(N=[N+]=[N-])[C@@H]1O)Oc1ccccc1)C(=O)OCC(C)(C)C (single isomer, unassigned) [Compound 154] | 700 | – | – |
| CC(C)OP1(=O)OC[C@H]2O[C@@H](n3ccc(=O)[nH]c3=O)[C@](C)(N=[N+]=[N-])[C@@H]2O1 (single isomer, unassigned) [Compound 564] | – | – | EC50 [2]: > 100000 nM |
| CC(C)COC(=O)[C@H](C)NP(=O)(OC[C@H]1O[C@@H](n2ccc(=O)[nH]c2=O)[C@](C)(N=[N+]=[N-])[C@@H]1O)Oc1ccccc1 (single isomer, unassigned) [Compound 210] | 3300 | – | – |
| C[C@@]1(N=[N+]=[N-])[C@H](O)[C@@H](CO)O[C@H]1n1ccc(=O)[nH]c1=O [Compound 4] | – | – | EC50 [1]: > 100000 nM |
| CCOc1nc(N)nc2c1ncn2[C@@H]1O[C@H](COP(=O)(N[C@@H](C)C(=O)OC2CCCCC2)Oc2ccccc2)[C@@H](O)[C@@]1(C)N=[N+]=[N-] (some centres unmarked) [Compound 145] | – | 200 | – |
| CCOc1nc(N)nc2c1ncn2[C@@H]1O[C@@H]2COP(=O)(OC3CCC3)O[C@H]2[C@@]1(C)N=[N+]=[N-] (single isomer, unassigned) [Compound 101] | – | – | EC50 [2]: 100 nM |
| CCCC(CCC)COC(=O)[C@H](C)NP(=O)(OC[C@H]1O[C@@H](n2ccc(N)nc2=O)[C@](C)(N=[N+]=[N-])[C@@H]1O)Oc1ccccc1 (some centres unmarked) [Compound 317] | – | 39000 | – |
| C[C@@H](NP(=O)(OC[C@H]1O[C@@H](n2ccc(=O)[nH]c2=O)[C@](C)(N=[N+]=[N-])[C@@H]1O)Oc1ccccc1)C(=O)OCc1ccccc1 (some centres unmarked) [Compound 45] | – | 5600 | – |
| CCOc1nc(N)nc2c1ncn2[C@@H]1O[C@H](COP(=O)(N[C@@H](C)C(=O)OC)Oc2ccc(F)cc2)[C@@H](O)[C@@]1(C)N=[N+]=[N-] (single isomer, unassigned) [Compound 173] | – | 600 | – |
| CC(C)OC(=O)[C@H](C)NP(=O)(OC[C@H]1O[C@@H](n2ccc(N)nc2=O)[C@](C)(N=[N+]=[N-])[C@@H]1O)Oc1ccc2c(c1)OCO2 (single isomer, unassigned) [Compound 335] | > 100000 | – | – |
| C[C@H](NP(=O)(OC[C@H]1O[C@@H](n2ccc(N)nc2=O)[C@](C)(N=[N+]=[N-])[C@@H]1O)Oc1ccccc1)C(=O)OC1CCCC1 (some centres unmarked) [Compound 336] | 15000 | – | – |
| CC(C)COC(=O)[C@H](C)NP(=O)(OC[C@H]1O[C@@H](n2ccc(N)nc2=O)[C@](C)(N=[N+]=[N-])[C@@H]1O)Oc1ccccc1 (some centres unmarked) [Compound 48] | – | 3100 | – |
| CCOc1nc(N)nc2c1ncn2[C@@H]1O[C@H](COP(=O)(N[C@@H](C)C(=O)OC(C)C)Oc2ccc(Cl)c(Cl)c2)[C@@H](O)[C@@]1(C)N=[N+]=[N-] (single isomer, unassigned) [Compound 361] | 11200 | – | – |

| SMILES | EC50 [nM] | EC50 (Hepatitis C virus, 72 h) [nM] | also measured |
| --- | --- | --- | --- |
| CC(C)COC(=O)[C@H](C)NP(=O)(OC[C@H]1O[C@@H](n2ccc(=O)[nH]c2=O)[C@](C)(N=[N+]=[N-])[C@@H]1O)Oc1ccccc1 (some centres unmarked) [Compound 38] | 300 | – | – |
| COC(=O)[C@H](C)NP(=O)(OC[C@H]1O[C@@H](n2ccc(N)nc2=O)[C@](C)(N=[N+]=[N-])[C@@H]1O)Oc1ccc(F)cc1 (single isomer, unassigned) [Compound 188] | 5600 | – | – |
| CCCCOC(=O)[C@H](C)NP(=O)(OC[C@H]1O[C@@H](n2cnc3c(OCC)nc(N)nc32)[C@](C)(N=[N+]=[N-])[C@@H]1O)Oc1ccc(Cl)c(Cl)c1 (some centres unmarked) [Compound 370] | – | 10000 | – |
| CC(C)COC(=O)[C@H](C)NP(=O)(OC[C@H]1O[C@@H](n2ccc(=O)[nH]c2=O)[C@](C)(N=[N+]=[N-])[C@@H]1O)Oc1ccccc1 (some centres unmarked) [Compound 37] | 3500 | – | – |
| CCOC(=O)[C@H](C)NP(=O)(OC[C@H]1O[C@@H](n2cnc3c(OCC)nc(N)nc32)[C@](C)(N=[N+]=[N-])[C@@H]1O)Oc1ccc(F)cc1 (some centres unmarked) [Compound 141] | – | 200 | – |
| CCOC(=O)[C@H](C)NP(=O)(OC[C@H]1O[C@@H](n2cnc3c(OC)nc(N)nc32)[C@](C)(N=[N+]=[N-])C1O)Oc1ccccc1 (single isomer, unassigned) [Compound 251] | – | 400 | – |
| CCOC(=O)[C@H](C)NP(=O)(OC[C@H]1O[C@@H](n2cnc3c(OCC)nc(N)nc32)[C@](C)(N=[N+]=[N-])[C@@H]1O)Oc1ccccc1Cl (some centres unmarked) [Compound 349] | – | 2000 | – |
| CCOC(=O)[C@H](C)NP(=O)(OC[C@H]1O[C@@H](n2ccc(N)nc2=O)[C@](C)(N=[N+]=[N-])[C@@H]1O)Oc1ccc(Cl)cc1 (single isomer, unassigned) [Compound 190] | 5600 | – | – |
| CCCCOC(=O)[C@H](C)NP(=O)(OC[C@H]1O[C@@H](n2cnc3c(OCC)nc(N)nc32)[C@](C)(N=[N+]=[N-])[C@@H]1O)Oc1ccccc1 (single isomer, unassigned) [Compound 168] | 1500 | – | – |
| COc1nc(N)nc2c1ncn2[C@@H]1O[C@H](COP(=O)(N[C@@H](C)C(=O)OC(C)C)Oc2ccc(F)cc2)[C@@H](O)[C@@]1(C)N=[N+]=[N-] (single isomer, unassigned) [Compound 269] | – | 700 | – |
| CC(C)OC(=O)[C@H](C)NP(=O)(OC[C@H]1O[C@@H](n2ccc(N)nc2=O)[C@](C)(N=[N+]=[N-])[C@@H]1O)Oc1ccccc1Cl (some centres unmarked) [Compound 95] | 4500 | – | – |
| CCCCOC(=O)[C@H](C)NP(=O)(OC[C@H]1O[C@@H](n2cnc3c(OCC)nc(N)nc32)[C@](C)(N=[N+]=[N-])[C@@H]1O)Oc1ccc(F)cc1 (some centres unmarked) [Compound 366] | – | 400 | – |
| CCOC(=O)[C@H](C)NP(=O)(OC[C@H]1O[C@@H](n2cnc3c(OCC)nc(N)nc32)[C@](C)(N=[N+]=[N-])[C@@H]1O)Oc1ccc(Cl)cc1 (some centres unmarked) [Compound 71] | – | 600 | – |
| CC(C)OC(=O)[C@H](C)NP(=O)(OC[C@H]1O[C@@H](n2ccc(=O)[nH]c2=O)[C@](C)(N=[N+]=[N-])[C@@H]1O)Oc1ccccc1Cl (some centres unmarked) [Compound 39] | – | 49000 | – |
| COC(=O)[C@H](C)NP(=O)(OC[C@H]1O[C@@H](n2cnc3c(OC)nc(N)nc32)[C@](C)(N=[N+]=[N-])[C@@H]1O)Oc1ccccc1 (some centres unmarked) [Compound 53] | – | 700 | – |
| CCCC(CCC)COC(=O)[C@H](C)NP(=O)(O)OC[C@H]1O[C@@H](n2ccc(N)nc2=O)[C@](C)(N=[N+]=[N-])[C@@H]1O [Compound 318] | – | – | EC50 [1]: 100000 nM |
| Cc1ccc(C(C)C)cc1OP(=O)(N[C@@H](C)C(=O)OC(C)C)OC[C@H]1O[C@@H](n2ccc(=O)[nH]c2=O)[C@](C)(N=[N+]=[N-])[C@@H]1O (some centres unmarked) [Compound 177] | – | 12000 | – |
| COC(=O)[C@H](C)NP(=O)(OC[C@H]1O[C@@H](n2cnc3c(OC)nc(N)nc32)[C@](C)(N=[N+]=[N-])[C@@H]1O)Oc1ccc(F)cc1 (single isomer, unassigned) [Compound 266] | 2400 | – | – |
| CCCOC(=O)[C@H](C)NP(=O)(OC[C@H]1O[C@@H](n2cnc3c(OCC)nc(N)nc32)[C@](C)(N=[N+]=[N-])[C@@H]1O)Oc1ccccc1 (single isomer, unassigned) [Compound 163] | – | 1100 | – |
| COc1nc(N)nc2c1ncn2[C@@H]1O[C@H](COP(=O)(N[C@@H](C)C(=O)OCC(C)C)Oc2ccccc2)C(O)[C@@]1(C)N=[N+]=[N-] (single isomer, unassigned) [Compound 277] | 2700 | – | – |
| COC(=O)[C@H](C)NP(=O)(OC[C@H]1O[C@@H](n2ccc(=O)[nH]c2=O)[C@](C)(N=[N+]=[N-])[C@@H]1O)Oc1cccc2ccccc12 (single isomer, unassigned) [Compound 218] | 4600 | – | – |
| C[C@H](NP(=O)(OC[C@H]1O[C@@H](n2ccc(=O)[nH]c2=O)[C@](C)(N=[N+]=[N-])[C@@H]1O)Oc1ccccc1)C(=O)O[C@H](C)c1ccccc1 (single isomer, unassigned) [Compound 303] | 46900 | – | – |
| CCCOC(=O)[C@H](C)NP(=O)(OC[C@H]1O[C@@H](n2cnc3c(OCC)nc(N)nc32)[C@](C)(N=[N+]=[N-])[C@@H]1O)Oc1ccccc1 (some centres unmarked) [Compound 29] | – | 500 | – |
